Data set [1] concerns the target T1, enzymatically active free PSA (Homo sapiens, UniProt P07288).
T1 construct: enzymatically active free PSA
Nature of the data set: Recognition of oligopeptide-doxorubicin conjugates by free PSA (HPLC, time to 50% cleavage). The following applies: conjugate added to PSA at a molar ratio of 100 to 1 in PSA digestion buffer; free conjugate tested. In kind it is biochemical. On the procedure: The conjugates prepared as described in Examples 3-5 were individually dissolved in PSA digestion buffer (12 mM tris(hydroxymethyl)-aminomethane pH8.0, 25 mM NaCl, 0.5 mM CaCl2) and the solution added to PSA at a molar ration of 100 to 1. Alternatively, the PSA digestion buffer utilized is 50 mM tris(hydroxymethyl)-aminomethane pH7.4, 140 mM NaCl. The reaction is quenched after various reaction times by the addition of trifluoroacetic acid (TFA) to a final 1% (volume/volume). Alternatively the reaction is quenched with 10mM ZnCl2. The quenched reaction was analyzed by HPLC on a reversed-phase C18 column using an aqueous 0.1%TFA/acetonitrile gradient. […] If no salt is indicated for the conjugate, the free conjugate was tested. The oligopeptide-cytotoxic agent conjugates described in Examples 4 and 5 were assessed for the amount of time (in minutes) required for 50% cleavage of the oligopeptide with enzymatically active free PSA and 50% cleavage occurred in less than 2 hours for those conjugates.

The next data set concerns DuPRO cells. Put plainly: In vitro cytotoxicity of peptidyl derivatives of doxorubicin, Alamar Blue assay, DuPRO cells. In kind it is cell-based. The following applies: DuPRO cells (value in parentheses in the LNCaP column), 72 HRS incubation, read-out: Cell Kill in 72 HRS EC 50 (µM), DuPRO. Here is the method:
(§1) The cytotoxicities of the cleaveable oligopeptide-doxorubicin conjugates, prepared as described in Examples 3 and 4, against a line of cells which is known to be killed by unmodified doxorubicin were assessed with an Alamar Blue assay. Specifically, cell cultures of LNCap prostate tumor cells (which express enzymatically active PSA) or DuPRO cells in 96 well plates was diluted with medium ([…]-α [MEM-α]) containing various concentrations of a given conjugate (final plate well volume of 200µl). The cells were incubated for 3 days at 37°C, 20µl of Alamar Blue is added to the assay well. The cells were further incubated and the assay plates were read on a EL-310 ELISA reader at the dual wavelengths of 570 and 600 nm at 4 and 7 hours after addition of Alamar Blue. Relative percentage viability at the various concentration of conjugate tested was then calculated versus control (no conjugate) cultures. If no salt is indicated, the free conjugate was tested.

Data set [2] relates to LNCap prostate tumor cells (which express enzymatically active PSA). Put plainly: In vitro cytotoxicity of peptidyl derivatives of doxorubicin, Alamar Blue assay, LNCaP cells. The following applies: 72 HRS incubation, free conjugate tested, read-out: LNCaP Cell Kill in 72 HRS EC 50. In kind it is cell-based. On the procedure: as §1
Background: The colour change of resazurin is a common sign of viable cells or microbes.

Non-standard residues stand in square brackets, D forms with d. Residues, ends and D or L forms follow the SMILES beside them. *: point of attachment. Doxorubicin(3'-N) = COc1cccc2c1C(=O)c1c(O)c3c(c(O)c1C2=O)C[C@@](O)(C(=O)CO)C[C@@H]3O[C@H]1C[C@H](N*)[C@H](O)[C@H](C)O1; Hyp = O=C(O)[C@@H]1C[C@@H](O)CN1; tBuAla = CC(C)(C)C[C@H](N)C(=O)O; Chg = N[C@H](C(=O)O)C1CCCCC1

T1 sequence (P07288 25-261): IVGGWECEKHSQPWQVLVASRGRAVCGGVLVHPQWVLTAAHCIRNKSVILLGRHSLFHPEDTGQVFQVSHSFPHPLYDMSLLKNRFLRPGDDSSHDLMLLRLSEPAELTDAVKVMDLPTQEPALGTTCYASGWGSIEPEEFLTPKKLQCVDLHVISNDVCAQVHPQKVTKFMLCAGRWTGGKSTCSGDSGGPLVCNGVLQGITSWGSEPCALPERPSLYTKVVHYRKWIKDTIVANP

In the case of `COc1cccc2c1C(=O)c1c(O)c3c(c(O)c1C2=O)C[C@@](O)(C(=O)CO)C[C@@H]3O[C@H]1C[C@H](NC(=O)[C@H](CC(C)C)NC(=O)[C@H](CO)NC(=O)[C@H](CCC(N)=O)NC(=O)[C@@H](NC(=O)[C@H](CO)NC(=O)[C@H](C)NC(=O)[C@@H]2C[C@@H](O)CN2C(C)=O)C2CCCCC2)[C@H](O)[C@H](C)O1` [Ac-(4-trans-L-Hyp)ASChgQ-SL-DOX (3'), [N-Ac-(4-trans-L-Hyp)]-Ala-Ser-Chg-Gln-Ser-Leu-Dox] (HELM PEPTIDE1{[ac].[Hyp].A.S.[O=C([C@@H](N[*:1])C1CCCCC1)[*:2]].Q.S.L.[COc1cccc2c1C(=O)c1c(O)c3c(c(O)c1C2=O)C[C@@](O)(C(=O)CO)C[C@@H]3O[C@H]1C[C@H](N[*:1])[C@H](O)[C@H](C)O1]}$$$$V2.0), the “Time to 50% Substrate Cleavage by PSA” value in data set [1] was 20 min. The EC50 in the data set on DuPRO cells amounted to 90 µM; in data set [2], 4.5 µM.
Regarding `COc1cccc2c1C(=O)c1c(O)c3c(c(O)c1C2=O)C[C@@](O)(C(=O)CO)C[C@@H]3O[C@H]1C[C@H](NC(=O)[C@H](CC(C)(C)C)NC(=O)[C@H](CO)NC(=O)[C@H](CCC(N)=O)NC(=O)[C@@H](NC(=O)[C@H](CO)NC(=O)[C@H](C)NC(=O)[C@@H]2C[C@@H](O)CN2C(C)=O)C2CCCCC2)[C@H](O)[C@H](C)O1` [Ac-(4-trans-L-Hyp)ASChgQ-StBuAla-DOX (3')] (Ac-[Hyp]AS[Chg]QS[tBuAla]-{Doxorubicin(3'-N)}), the “Time to 50% Substrate Cleavage by PSA” value in data set [1] was determined as 25 min. The EC50 with DuPRO cells was over 100 µM; in data set [2], 100 µM.
Ac-(4-trans-L-Hyp)ASChgQ-SThi-DOX (3'): the “Time to 50% Substrate Cleavage by PSA (Min)” value in data set [1] is “INSOLUBLE”.
Regarding “PEG(2)-(4-trans-L-Hyp)ASChgQ-SL-DOX (3')”, the “Time to 50% Substrate Cleavage by PSA” value in data set [1] was 20 min.

Values taken from EP0942754B1, “CONJUGATES USEFUL IN THE TREATMENT OF PROSTATE CANCER” (priority 1996, dated 1998).
